Experimental data taken from patent publication US20060252683A1, “Preparation of a peptide compound (SYRAPRO-2000) and its use for the activation of protein phosphatase-2A1 enzyme” (priority 2005, published 2006).

Experiments:
protein phosphatase-2C = assay: Protein phosphatase-2C assay; type: biochemical, pig; details: various concentrations
Protocol: Protein phosphatase-1 (squares), protein phosphatase-2A1 (circles), protein phosphatase-2B (triangles) and protein phosphatase-2C (stars) were assayed in the presence of various concentrations of HIV-1 Vpr^71-96. 100 percent protein phosphatase activity is equivalent to 0.005 unit. Similar results were obtained in 3 independent experiments.
^32P-labeled phosphorylase a was prepared by phosphorylation of phosphorylase b with phosphorylase kinase as described in (Cohen 1988). ^32P-labeled casein was prepared by phosphorylation of casein with protein kinase A as described in (Tung 1986). Protein phosphatase-1 was purified from rabbit skeletal muscle as described in (Cohen 1988). Protein phosphatase-1 inhibitor-2 was purified from rabbit skeletal muscle as described in (Yang 1981). Protein phosphatase-2A0 and protein phosphatase-2A1 from pig brain and from pig liver were purified as described in (Tung 1985). Protein phosphatase-2A0 and protein phosphatase-2A1 from pig adipose tissue were highly purified by successive chromatography of pig subcutaneous adipose tissue extracts on DEAE Sepharose, Poly-L-lysine Agarose, Sephacryl S-300 HR and thiophosphorylase-a-Sepharose-4B as described in (Tung 1985). Protein phosphatase-2B was purified from pig brain as described in (Tung 1986). […]

[1] = Dissolution of purified peptide in water; type: physicochemical
Protocol: SYRAPRO-2000, a peptide compound activator of protein phosphatase-2A1 was prepared by chemical synthesis on an automated Solid Phase Peptide Synthesizer. Following synthesis, it was cleaved and purified by reverse phase HPLC on a C18 column. The structure of SYRAPRO-2000 is: […]. The molecular mass of SYRAPRO-2000 was determined by MALDI ToF MS. The purified material, a white solid was readily dissolved in and reconstituted in water at ˜1-2 mg/ml. For its use as an in vitro activator of protein phosphatase-2A1, it is dissolved in the assay buffer which consisted of 0.02 ml of enzyme solution in 50 mM Imidazole-Cl pH 7.2, 0.2 mM EGTA, 0.1% (v/v) 2-mercaptoethanol and 1 mg/ml bovine serum albumin. For its use on intact cells, it is dissolved in the culture medium.

Jurkat cells = assay: Cell viability (tryphan blue) and cell death of Jurkat cells; type: cell-based, human; details: 1000 nM
Protocol: (§1) Panel A, Jurkat cells (a CD^4+ T cell line) were grown in RPMI 1640 and 10% (v/v) fetal bovine serum. Cells (10^6 cells per ml) were treated (+) or not (−) with 1000 nM SYRAPRO-2000. Cell viability was then determined by counting the cells following tryphan blue staining after 1, 2 and 4 hours of incubation. Panel B, Following treatment with SYRAPRO-2000 for 1, 2 and 4 hours as indicated, Jurkat cells (10^6/ml) were washed with RPMI plus 2% fetal bovine serum and then deposited onto glass slides by cytospinning. Phase contrast images were then obtained with white light emission on a Zeiss Axioplan 2 imaging universal microscope (Thornwood, N.Y.). […]
(§2) Jurkat cells are grown in RPMI 1680 medium supplemented with 5% (v/v) fetal bovine serum and antibiotics and treated or not with 1 μM of SYRAPRO-2000 for 1 hour, 2 hours and 4 hours. Following treatment with SYRAPRO-2000, cell viability are then determined by counting the cells following tryphan blue staining. […]
(§3) Following treatment of cells with SYRAPRO-2000, cells were examined by phase contrast microscopy or by fluorescent microscopy following staining with FITC labeled annexin V (apoptotic cell death) and propidium iodide (oncolytic cell death). Cells were analyzed on a Zeiss Axioplan 2 imaging universal microscope (Thornwood, N.Y.). […] Green (FITC labeled annexin V) and red (propidium iodide) fluorescence images were obtained. […]

[2] = as above; type: cell-based, human; details: human, Jurkat cells (CD4+ T cell line), 1000 nM, four hours of incubation, read-out: treated cells non viable (tryphan blue staining)
Protocol: as §1, §2, §3

In the case of `CC[C@H](C)[C@H](NC(=O)[C@H](CCCNC(=N)N)NC(=O)[C@H](CO)NC(=O)[C@H](Cc1c[nH]cn1)NC(=O)[C@H](CCCNC(=N)N)NC(=O)[C@H](CS)NC(=O)CNC(=O)[C@@H](NC(=O)[C@H](CCCNC(=N)N)NC(=O)[C@H](Cc1ccccc1)NC(=O)[C@@H](N)Cc1c[nH]cn1)[C@@H](C)CC)C(=O)NCC(=O)N[C@H](C(=O)N[C@H](C(=O)N[C@@H](CCCNC(=N)N)C(=O)N[C@@H](CCC(N)=O)C(=O)N[C@@H](CCCNC(=N)N)C(=O)N[C@@H](CCCNC(=N)N)C(=O)N[C@@H](C)C(=O)N[C@@H](CCCNC(=N)N)C(=O)N[C@@H](CC(N)=O)C(=O)NCC(=O)N[C@@H](C)C(=O)N[C@@H](CO)C(=O)N[C@@H](CCCNC(=N)N)C(=O)N[C@@H](CO)C(=O)O)[C@@H](C)O)C(C)C` [SYRAPRO-2000], the “effect on activity of protein phosphatase-2C” value (protein phosphatase-2C) is reported as “negligible effect”, the “readily dissolved and reconstituted in water” value [1] is reported as 1 to 2 mg/mL and the “mode of cell death (phase contrast microscopy)” value (Jurkat cells) is reported as “oncolysis”. It also gave a cytotoxicity at 4 h, 1 µM [2] of ~60%.
